Reference: publication PMC11532403 (Signal Transduction and Targeted Therapy, 2024)

Columns and labels:
[1] = system: Baf3-KIF5B-RET M918T cells; experiment: Proliferation assay (CellTiter-Glo); format: cell-based, murine; settings: Mus musculus, read-out: Cellular Viability IC50
Method: (§1) The cell lines HEK293T, Baf3, TT cell and NIH-3T3 were obtained from the Cell Resource Center, Peking Union Medical College (PCRC). HEK293T and NIH-3T3 were maintained in DMEM high glucose medium (#C3113-0500, Vivacell) supplemented with 10 % FBS (#10500064, Gibco) and 1 % Penicillin-Streptomycin (#15140122, Gibco). The murine Pro‐B cell line Baf3 was cultured in RPMI 1640 medium (#C3010, Vivacell) supplemented with 10 % FBS, 1 % Penicillin-Streptomycin and 1 ng/mL recombinant murine interleukin-3 (#213-13, PeproTech). All stably transformed BaF3 cells were cultured in RPMI 1640 without IL‐3. The TT MTC cell was grown in Ham's F-12K medium (#21127022, Gibco) supplemented with 10 % FBS and 1 % Penicillin-Streptomycin. Cells were cultured at 37 °C under 5 % CO2 and high humidity conditions.
(§2) KIF5B-RET, CCDC6-RET and mutations were cloned into pCDHL vector and were verified by sequencing. Reah RET expression vectors were separately co‐transfected with psPAX2 and pMD2.G packaging plasmids into 60-70% confluent HEK 293T cells maintained in 2 mL of culture medium in six‐well plates using Polyethyleneimine (PEI) transfection grade. Virus containing media was harvested after 48 h and filtered with 0.45 μm membrane and stored at -80 °C prior to infection. For infection of Ba/F3 cells, 1 mL of viral supernatant and 8 μg/mL polybrene were added to 5 million cells per well in six‐well plates. Infected cells were selected with the addition of 1 μg/mL puromycin for 2 weeks in RPMI-1640/ 10% FBS/ 1 ng/mL IL-3 medium. Subsquently, puromycin-resistant cells were cultured in IL-3-free medium for 1 week and RET fusion proteins were confirmed by immunoblot analysis.
(§3) Cell viability was assessed by luminescence using CellTiter-Glo 2.0 assay (Promega). IC50 curve fitting was performed using GraphPad Prism 9.0.

[2] = system: Baf3-KIF5B-RET WT cells; experiment: Proliferation assay (CellTiter-Glo); format: cell-based, murine; settings: Mus musculus, read-out: Cellular Viability IC50
Method: as §1, §2, §3

[3] = system: Baf3-KIF5B-RET V804M cells; experiment: Proliferation assay (CellTiter-Glo); format: cell-based, murine; settings: Mus musculus, read-out: Cellular Viability IC50
Method: as §1, §2, §3

[4] = system: Baf3-CCDC6-RET V804M cells; experiment: Proliferation assay (CellTiter-Glo); format: cell-based, murine; settings: Mus musculus, read-out: Cellular Viability IC50
Method: as §1, §2, §3

[5] = system: Baf3-CCDC6-RET WT cells; experiment: Proliferation assay (CellTiter-Glo); format: cell-based, murine; settings: Mus musculus, read-out: Cellular Viability IC50
Method: as §1, §2, §3

[6] = system: Baf3-CCDC6-RET M918T cells; experiment: Proliferation assay (CellTiter-Glo); format: cell-based, murine; settings: Mus musculus, read-out: Cellular Viability IC50
Method: as §1, §2, §3

[7] = Plasma protein binding, rapid equilibrium dialysis; format: in vitro ADME; settings: human, read-out: Plasma protein binding rate (converted)
[8] = target: T1, RET^G810S (Homo sapiens, UniProt P07949, G810S); experiment: HTRF kinEASE-TK kinase assay; settings: ATP at Km; read-out: Biochemical IC50 RET^G810S
T1 construct: RET (residues 658-1114) was cloned into pFastBac vector containing an N-terminal Glutathione S-transferase (GST) tag; made in house; host or cells: Sf9 insect cells (baculovirus)
Method: (§4) RET (residues 658-1114) was cloned into pFastBac vector containing an N-terminal Glutathione S-transferase (GST) tag. Mutagenesis was performed on this vector to generate the RET^V804M single mutant: RETV804MmutF: […]a[…] and RETV804MmutR: […]t[…]; the RET^M918T single mutant: RETM918TmutF: […]c[…] and RETM918TmutR: […]g[…]; the RET^G810S single mutant: RETG810SmutF: […]tc[…] and RETG810SmutR: […]ga[…]. Recombinant baculovirus for expression of GST-RET was generated by co-transfection of Sf9 cells. Plaque-purified viruses were amplified, titrated and used to infect Sf9 cells incubated at 27 °C and 80 rpm. Cells were harvested 72 h post infection for protein purification.
(§5) Frozen cell pellets (1 liter culture/each) were thawed and resuspended in 20 ml of buffer A (50mM Tris-HCl, pH 7.5, 150mM NaCl, 0.1mM EDTA, 0.5% Triton X-100, 20% glycerol and 1* protease inhibitor [#539134-1SETCN, Merck]) and sonicated. The cell lysates were centrifuged at 20000 rpm for 40 min at 4 °C, then applied to GSH-Sepharose 4 Fast Flow (GE Healthcare) at 4 °C. After washing twice with 10 mL of buffer B (50mM Tris-HCl, pH 7.5, 150mM NaCl, 0.1 mM EDTA, 20% glycerol), the protein was eluted with elution buffer (50mM Tris-HCl, pH 7.5, 150mM NaCl, 0.1mM EDTA, 20% glycerol, 20mM Glutathione, 1 mM DTT) and concentrated using Amicon Ultra-15. Purities of proteins were 90% as determined by SDS-PAGE and Coomassie Blue stain.
(§6) Kinase activity was detected using CisBio HTRF kinEASE-TK kit. The assay was performed in 384-well white plates (#3574, Corning) in a reaction volume of 10 μL containing a final concentration of 50 mM HEPES, pH 7.5, 0.1 mM Na3VO4,0.01% BSA, 0.001% Tween-20, 5 mM MgCl2, […], 1 mM DTT, 1 μM TK-Substrate-biotin. The reaction was initiated by the addition of ATP at Km and indicated recombinant RET proteins. […] After incubation at 23 °C for 1 hour, FRET signal was measured on an EnVision reader (PerkinElmer Inc.).

[9] = target: T2, RET^WT (Homo sapiens, UniProt P07949); experiment: HTRF kinEASE-TK kinase assay; settings: ATP at Km; read-out: Biochemical IC50 RET^WT
T2 construct: RET (residues 658-1114) was cloned into pFastBac vector containing an N-terminal Glutathione S-transferase (GST) tag; made in house; host or cells: Sf9 insect cells (baculovirus)
Method: as §4, §5, §6

[10] = target: T3, RET^M918T (Homo sapiens, UniProt P07949, M918T); experiment: HTRF kinEASE-TK kinase assay; settings: ATP at Km; read-out: Biochemical IC50 RET^M918T
T3 construct: RET (residues 658-1114) was cloned into pFastBac vector containing an N-terminal Glutathione S-transferase (GST) tag; made in house; host or cells: Sf9 insect cells (baculovirus)
Method: as §4, §5, §6

T3 sequence (P07949 658-1114 M918T): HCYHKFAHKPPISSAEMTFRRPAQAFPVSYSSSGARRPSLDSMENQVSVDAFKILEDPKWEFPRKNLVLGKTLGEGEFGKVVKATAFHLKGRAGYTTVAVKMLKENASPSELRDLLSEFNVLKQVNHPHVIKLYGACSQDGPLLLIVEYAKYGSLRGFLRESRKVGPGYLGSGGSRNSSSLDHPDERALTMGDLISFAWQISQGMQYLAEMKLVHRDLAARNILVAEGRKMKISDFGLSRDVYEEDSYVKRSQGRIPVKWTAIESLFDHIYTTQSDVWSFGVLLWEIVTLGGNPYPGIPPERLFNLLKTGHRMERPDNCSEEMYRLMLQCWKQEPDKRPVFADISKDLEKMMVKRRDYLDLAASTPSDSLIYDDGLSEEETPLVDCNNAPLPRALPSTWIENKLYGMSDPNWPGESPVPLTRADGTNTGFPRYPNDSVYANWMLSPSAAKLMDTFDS
T1 sequence (P07949 658-1114 G810S): as the sequence (P07949 658-1114 M918T) above, with G153S, T261M counted along it
T2 sequence (P07949 658-1114): as the sequence (P07949 658-1114 M918T) above, with T261M counted along it

SMILES: COc1ccc(CN2C3CC2CN(c2ccc(-c4cc(N5CC(C)(O)C5)cn5ncc(C#N)c45)cn2)C3)cn1 [SY-5007, 6-(3-hydroxy-3-methylazetidin-1-yl)-4-(6-(6-((6-methoxypyridin-3-yl)methyl)-3,6-diazabicyclo[3.1.1]heptan-3-yl)pyridin-3-yl)pyrazolo[1,5-a]pyridine-3-carbonitrile]
- IC50 [1]: 13.6 nM
- IC50 [2]: 9.65 nM
- IC50 [3]: 45.3 nM
- IC50 [4]: 27.1 nM
- IC50 [5]: 10.2 nM
- IC50 [6]: 5.44 nM
- fraction unbound [7]: 0.061
- IC50 [8]: 2.07 nM
- IC50 [9]: 0.339 nM
- IC50 [10]: 0.84 nM
